# In PMC7486443, “Generation of Phenothiazine with Potent Anti-TLK1 Activity for Prostate Cancer Therapy” (iScience, 2020):
# Experiments:
# Test in all cases: biochemical
# Design in all cases: DiscoverX KINOMEscan scanMAX competition binding panel, single concentration, percent of control; remaining binding: dose or concentration left out as unconfirmed
# Details in all cases: KINOMEscan binding, percent of control; read-out: Table S4_SCANMAX REPORT - related to Fig. 1 / Percent Control
# [1] = biological target: ACVRL1 (Homo sapiens, UniProt P37023)
# Sequence of ACVRL1 (P37023 whole entry): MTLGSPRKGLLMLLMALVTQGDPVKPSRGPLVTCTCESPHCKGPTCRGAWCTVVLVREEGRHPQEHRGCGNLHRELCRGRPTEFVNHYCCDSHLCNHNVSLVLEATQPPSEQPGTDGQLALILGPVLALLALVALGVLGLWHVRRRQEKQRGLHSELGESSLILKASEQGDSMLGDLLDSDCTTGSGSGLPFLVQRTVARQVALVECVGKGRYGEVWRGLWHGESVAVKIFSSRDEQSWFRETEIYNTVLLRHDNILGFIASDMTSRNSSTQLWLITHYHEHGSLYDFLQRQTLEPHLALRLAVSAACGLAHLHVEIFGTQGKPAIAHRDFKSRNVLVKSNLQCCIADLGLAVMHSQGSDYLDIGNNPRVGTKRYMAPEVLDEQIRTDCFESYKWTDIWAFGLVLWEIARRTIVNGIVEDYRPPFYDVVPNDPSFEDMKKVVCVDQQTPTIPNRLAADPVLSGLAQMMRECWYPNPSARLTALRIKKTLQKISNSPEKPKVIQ
# [2] = biological target: STK36 (Homo sapiens, UniProt Q9NRP7)
# Sequence of STK36 (Q9NRP7 whole entry): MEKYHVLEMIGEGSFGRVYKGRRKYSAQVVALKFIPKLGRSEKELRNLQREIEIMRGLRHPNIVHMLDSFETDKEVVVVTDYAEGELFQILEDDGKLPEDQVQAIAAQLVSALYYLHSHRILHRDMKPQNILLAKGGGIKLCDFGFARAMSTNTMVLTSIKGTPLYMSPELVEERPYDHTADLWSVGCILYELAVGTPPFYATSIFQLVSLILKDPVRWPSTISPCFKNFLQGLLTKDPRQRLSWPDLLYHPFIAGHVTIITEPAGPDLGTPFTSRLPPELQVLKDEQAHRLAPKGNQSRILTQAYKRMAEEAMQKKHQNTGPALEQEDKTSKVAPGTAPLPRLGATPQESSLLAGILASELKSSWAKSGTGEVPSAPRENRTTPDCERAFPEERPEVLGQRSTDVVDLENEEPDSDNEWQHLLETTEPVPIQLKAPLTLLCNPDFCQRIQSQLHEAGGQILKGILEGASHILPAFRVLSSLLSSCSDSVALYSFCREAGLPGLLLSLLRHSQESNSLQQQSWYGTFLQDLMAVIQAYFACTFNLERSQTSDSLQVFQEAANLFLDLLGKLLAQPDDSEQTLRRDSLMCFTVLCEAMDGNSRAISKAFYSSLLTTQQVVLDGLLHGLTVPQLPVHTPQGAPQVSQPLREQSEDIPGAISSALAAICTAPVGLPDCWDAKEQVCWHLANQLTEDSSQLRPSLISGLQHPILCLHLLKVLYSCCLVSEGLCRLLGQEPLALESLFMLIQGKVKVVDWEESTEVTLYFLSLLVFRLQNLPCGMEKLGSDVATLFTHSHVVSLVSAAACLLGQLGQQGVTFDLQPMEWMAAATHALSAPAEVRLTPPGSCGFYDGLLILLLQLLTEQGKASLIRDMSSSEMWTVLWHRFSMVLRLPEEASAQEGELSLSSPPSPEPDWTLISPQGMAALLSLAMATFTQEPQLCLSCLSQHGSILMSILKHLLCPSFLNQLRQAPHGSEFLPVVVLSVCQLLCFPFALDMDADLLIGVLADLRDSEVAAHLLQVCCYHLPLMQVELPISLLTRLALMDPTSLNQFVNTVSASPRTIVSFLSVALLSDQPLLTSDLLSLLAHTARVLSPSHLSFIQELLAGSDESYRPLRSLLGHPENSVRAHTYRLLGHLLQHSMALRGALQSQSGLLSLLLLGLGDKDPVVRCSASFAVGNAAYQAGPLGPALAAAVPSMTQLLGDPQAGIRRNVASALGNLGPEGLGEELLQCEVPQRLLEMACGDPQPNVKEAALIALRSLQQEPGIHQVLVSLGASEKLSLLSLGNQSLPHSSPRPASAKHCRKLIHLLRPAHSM
# [3] = biological target: LATS2 (Homo sapiens, UniProt Q9NRM7)
# [4] = biological target: CHEK2 (Homo sapiens, UniProt O96017)
# [5] = biological target: T1, PKAC-alpha (Homo sapiens, UniProt P17612)
# T1 construct: gene PRKACA
# [6] = biological target: MYLK4 (Homo sapiens, UniProt Q86YV6)
# [7] = biological target: PLK3 (Homo sapiens, UniProt Q9H4B4)
# [8] = biological target: FLT3(ITD,D835V) (Homo sapiens, UniProt P36888, D835V/ITD)
# [9] = biological target: FLT4 (Homo sapiens, UniProt P35916)
# [10] = biological target: MAP3K1 (Homo sapiens, UniProt Q13233)
# [11] = biological target: T2, DLK (Homo sapiens, UniProt Q12852)
# T2 construct: gene MAP3K12
# [12] = biological target: MARK4 (Homo sapiens, UniProt Q96L34)
# [13] = biological target: ANKK1 (Homo sapiens, UniProt Q8NFD2)
# [14] = biological target: T3, IKK-alpha (Homo sapiens, UniProt O15111)
# T3 construct: gene CHUK
# T3 sequence (O15111 whole entry): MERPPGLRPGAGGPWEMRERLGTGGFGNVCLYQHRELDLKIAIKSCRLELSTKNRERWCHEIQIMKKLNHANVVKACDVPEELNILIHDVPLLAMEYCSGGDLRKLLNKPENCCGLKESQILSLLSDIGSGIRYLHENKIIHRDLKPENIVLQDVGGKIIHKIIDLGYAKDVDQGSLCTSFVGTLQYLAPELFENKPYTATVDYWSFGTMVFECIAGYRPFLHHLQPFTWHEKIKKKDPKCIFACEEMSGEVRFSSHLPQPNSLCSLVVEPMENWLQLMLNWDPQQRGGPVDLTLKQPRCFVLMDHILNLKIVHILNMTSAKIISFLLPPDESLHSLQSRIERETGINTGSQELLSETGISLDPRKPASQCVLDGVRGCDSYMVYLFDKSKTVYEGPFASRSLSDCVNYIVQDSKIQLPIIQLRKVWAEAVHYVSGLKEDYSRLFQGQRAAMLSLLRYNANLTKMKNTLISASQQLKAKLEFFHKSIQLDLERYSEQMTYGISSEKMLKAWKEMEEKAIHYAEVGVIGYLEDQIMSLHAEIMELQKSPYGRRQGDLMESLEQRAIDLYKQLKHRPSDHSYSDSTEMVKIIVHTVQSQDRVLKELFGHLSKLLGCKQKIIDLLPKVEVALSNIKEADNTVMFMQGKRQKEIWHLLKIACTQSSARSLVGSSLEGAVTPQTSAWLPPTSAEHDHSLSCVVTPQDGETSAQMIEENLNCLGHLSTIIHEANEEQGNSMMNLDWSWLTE
# [15] = biological target: ROCK1 (Homo sapiens, UniProt Q13464)
# Sequence of ROCK1 (Q13464 whole entry): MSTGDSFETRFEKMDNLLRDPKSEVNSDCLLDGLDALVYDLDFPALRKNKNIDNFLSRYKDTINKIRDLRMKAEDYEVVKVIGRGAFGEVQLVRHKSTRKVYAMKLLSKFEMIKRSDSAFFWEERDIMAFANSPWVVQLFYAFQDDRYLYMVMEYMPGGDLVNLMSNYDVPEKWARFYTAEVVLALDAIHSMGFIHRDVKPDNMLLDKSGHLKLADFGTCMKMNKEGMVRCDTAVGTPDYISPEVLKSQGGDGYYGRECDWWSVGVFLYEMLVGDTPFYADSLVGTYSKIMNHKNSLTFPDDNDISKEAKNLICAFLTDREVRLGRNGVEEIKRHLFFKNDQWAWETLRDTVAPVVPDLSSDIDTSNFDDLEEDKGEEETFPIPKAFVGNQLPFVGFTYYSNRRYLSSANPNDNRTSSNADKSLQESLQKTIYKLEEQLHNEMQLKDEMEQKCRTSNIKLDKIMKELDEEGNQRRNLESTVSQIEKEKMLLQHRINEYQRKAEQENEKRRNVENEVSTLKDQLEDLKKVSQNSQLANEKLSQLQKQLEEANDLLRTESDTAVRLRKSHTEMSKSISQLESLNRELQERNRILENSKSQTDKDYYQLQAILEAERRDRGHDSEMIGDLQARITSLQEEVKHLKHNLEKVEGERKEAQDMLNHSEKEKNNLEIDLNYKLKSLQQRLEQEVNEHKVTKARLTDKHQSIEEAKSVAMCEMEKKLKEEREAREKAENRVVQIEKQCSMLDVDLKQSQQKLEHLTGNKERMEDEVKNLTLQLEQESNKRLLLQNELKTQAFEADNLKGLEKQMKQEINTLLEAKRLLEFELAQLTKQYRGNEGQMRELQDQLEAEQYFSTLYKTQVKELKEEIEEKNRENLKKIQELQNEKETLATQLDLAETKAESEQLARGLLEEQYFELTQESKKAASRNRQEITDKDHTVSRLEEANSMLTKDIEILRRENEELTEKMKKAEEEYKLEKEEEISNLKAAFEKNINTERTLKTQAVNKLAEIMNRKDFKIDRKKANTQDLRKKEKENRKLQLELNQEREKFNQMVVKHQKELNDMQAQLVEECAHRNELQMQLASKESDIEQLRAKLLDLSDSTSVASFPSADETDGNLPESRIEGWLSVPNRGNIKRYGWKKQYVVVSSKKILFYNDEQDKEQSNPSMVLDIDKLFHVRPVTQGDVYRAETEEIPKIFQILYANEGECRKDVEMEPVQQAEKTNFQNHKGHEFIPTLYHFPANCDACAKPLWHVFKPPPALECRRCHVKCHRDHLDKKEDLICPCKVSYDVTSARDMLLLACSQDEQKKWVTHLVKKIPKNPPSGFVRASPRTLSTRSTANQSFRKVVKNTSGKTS
# [16] = biological target: T4, MST2 (Homo sapiens, UniProt Q13188)
# T4 construct: gene STK3
# [17] = biological target: TIE1 (Homo sapiens, UniProt P35590)
# Sequence of TIE1 (P35590 whole entry): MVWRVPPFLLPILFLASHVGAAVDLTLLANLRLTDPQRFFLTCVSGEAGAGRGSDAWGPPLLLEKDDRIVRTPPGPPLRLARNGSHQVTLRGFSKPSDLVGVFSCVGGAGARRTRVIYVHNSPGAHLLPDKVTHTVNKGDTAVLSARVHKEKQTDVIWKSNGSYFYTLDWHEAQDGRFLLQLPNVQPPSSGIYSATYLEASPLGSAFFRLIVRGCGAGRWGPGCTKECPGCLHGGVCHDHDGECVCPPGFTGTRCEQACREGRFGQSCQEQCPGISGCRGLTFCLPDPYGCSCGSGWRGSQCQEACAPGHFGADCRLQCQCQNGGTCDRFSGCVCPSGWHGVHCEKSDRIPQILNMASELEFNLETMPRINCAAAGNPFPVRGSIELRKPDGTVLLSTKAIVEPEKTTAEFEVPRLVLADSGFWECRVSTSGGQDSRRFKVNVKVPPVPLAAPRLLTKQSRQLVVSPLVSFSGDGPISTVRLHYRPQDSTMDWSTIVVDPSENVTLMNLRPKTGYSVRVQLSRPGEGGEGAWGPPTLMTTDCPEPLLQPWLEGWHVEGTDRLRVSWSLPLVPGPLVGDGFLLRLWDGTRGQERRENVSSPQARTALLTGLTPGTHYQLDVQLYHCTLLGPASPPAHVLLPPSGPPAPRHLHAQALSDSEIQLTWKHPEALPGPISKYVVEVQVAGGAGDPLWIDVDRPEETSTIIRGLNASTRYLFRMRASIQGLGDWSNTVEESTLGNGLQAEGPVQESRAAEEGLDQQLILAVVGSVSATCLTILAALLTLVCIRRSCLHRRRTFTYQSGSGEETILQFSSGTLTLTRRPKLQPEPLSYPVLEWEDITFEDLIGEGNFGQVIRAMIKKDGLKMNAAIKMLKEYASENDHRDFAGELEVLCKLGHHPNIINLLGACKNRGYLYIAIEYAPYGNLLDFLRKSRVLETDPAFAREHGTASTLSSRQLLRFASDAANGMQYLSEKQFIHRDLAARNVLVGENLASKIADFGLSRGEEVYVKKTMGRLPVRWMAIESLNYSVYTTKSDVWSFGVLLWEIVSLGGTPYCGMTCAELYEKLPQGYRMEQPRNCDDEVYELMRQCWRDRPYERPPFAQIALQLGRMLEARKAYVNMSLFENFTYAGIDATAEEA
# [18] = biological target: NEK9 (Homo sapiens, UniProt Q8TD19)
structure (smiles),measurement,setting,value
c1ccc2c(c1)Sc1ccccc1N2CCN1CCOCC1 [J54],remaining binding,[1],100%
same,remaining binding,[2],67%
same,remaining binding,[3],90%
same,remaining binding,[4],100%
same,remaining binding,[5],98%
same,remaining binding,[6],99%
same,remaining binding,[7],100%
same,remaining binding,[8],57%
same,remaining binding,[9],96%
same,remaining binding,[10],100%
same,remaining binding,[11],100%
same,remaining binding,[12],100%
same,remaining binding,[13],100%
same,remaining binding,[14],100%
same,remaining binding,[15],100%
same,remaining binding,[16],100%
same,remaining binding,[17],98%
same,remaining binding,[18],100%
